Assay results from PubChem BioAssay AID1918938 (Molecular Pharmacology Branch, DTP, NCI, 2023).

Test system: 556581-035-R-J1-PDC complex spheroid viability
Assay: Anticancer human tumor 556581-035-R-J1-PDC patient-derived ovarian carcinoma cell line growth inhibition
Conditions: for IC50: curve of first compound; for viability, T/C: stronger effect = lower value
Outline: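 Complex spheroids of tumor cells with HUVEC and human MSCs, exposed to iadademstat combined with other agents. Each agent tested in half-log steps from near clinical Cmax (else 10 microM top), DMSO ≤0.25%.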

[1] = second compound 0.1 µM, first compound 0.0316 µM
[2] = second compound 0.1 µM, first compound 0.1 µM
[3] = second compound 0.1 µM, first compound 0.316 µM
[4] = second compound 0.1 µM, first compound 1 µM
[5] = second compound 0.1 µM, first compound 3.16 µM
[6] = second compound 0.1 µM, first compound 10 µM
[7] = second compound 0.316 µM, first compound 0.0316 µM
[8] = second compound 0.316 µM, first compound 0.1 µM
[9] = second compound 0.316 µM, first compound 0.316 µM
[10] = second compound 0.316 µM, first compound 1 µM
[11] = second compound 0.316 µM, first compound 3.16 µM
[12] = second compound 0.316 µM, first compound 10 µM
[13] = second compound 1 µM, first compound 0.0316 µM
[14] = second compound 1 µM, first compound 0.1 µM
[15] = second compound 1 µM, first compound 0.316 µM
[16] = second compound 1 µM, first compound 1 µM
[17] = second compound 1 µM, first compound 3.16 µM
[18] = second compound 1 µM, first compound 10 µM
[19] = second compound 3.16 µM, first compound 0.0316 µM
[20] = second compound 3.16 µM, first compound 0.1 µM
[21] = second compound 3.16 µM, first compound 0.316 µM
[22] = second compound 3.16 µM, first compound 1 µM
[23] = second compound 3.16 µM, first compound 3.16 µM
[24] = second compound 3.16 µM, first compound 10 µM
[25] = second compound 10 µM, first compound 0.0316 µM
[26] = second compound 10 µM, first compound 0.1 µM
[27] = second compound 10 µM, first compound 0.316 µM
[28] = second compound 10 µM, first compound 1 µM
[29] = second compound 10 µM, first compound 3.16 µM
[30] = second compound 10 µM, first compound 10 µM
[31] = second compound 0.1 µM, first compound 0.00949 µM
[32] = second compound 0.1 µM, first compound 0.03 µM
[33] = second compound 0.1 µM, first compound 0.0949 µM
[34] = second compound 0.1 µM, first compound 0.3 µM
[35] = second compound 0.316 µM, first compound 0.00949 µM
[36] = second compound 0.316 µM, first compound 0.03 µM
[37] = second compound 0.316 µM, first compound 0.0949 µM
[38] = second compound 0.316 µM, first compound 0.3 µM
[39] = second compound 1 µM, first compound 0.00949 µM
[40] = second compound 1 µM, first compound 0.03 µM
[41] = second compound 1 µM, first compound 0.0949 µM
[42] = second compound 1 µM, first compound 0.3 µM
[43] = second compound 3.16 µM, first compound 0.00949 µM
[44] = second compound 3.16 µM, first compound 0.03 µM
[45] = second compound 3.16 µM, first compound 0.0949 µM
[46] = second compound 3.16 µM, first compound 0.3 µM
[47] = second compound 10 µM, first compound 0.00949 µM
[48] = second compound 10 µM, first compound 0.03 µM
[49] = second compound 10 µM, first compound 0.0949 µM
[50] = second compound 10 µM, first compound 0.3 µM
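Also: spheroids exposed to agents for seven days.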
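For viability, T/C in this document: 100% = DMSO vehicle control wells.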

CC1(C)CCC(CN2CCN(c3ccc(C(=O)NS(=O)(=O)c4ccc(NCC5CCOCC5)c([N+](=O)[O-])c4)c(Oc4cnc5[nH]ccc5c4)c3)CC2)=C(c2ccc(Cl)cc2)C1 + NC1CCC(NC2CC2c2ccccc2)CC1 showed an IC50 (second compound 0.1 µM) of 4.38 µM, an IC50 (second compound 0.316 µM) of 3.5 µM and an IC50 (second compound 1 µM) of 4.18 µM. For the same compound, the IC50 (second compound 3.16 µM) was 3.83 µM, the IC50 (second compound 10 µM) was 2.92 µM and the viability, T/C [1] was 80.7%. For the same compound, the viability, T/C [2] was 86.4%, the viability, T/C [3] was 80% and the viability, T/C [4] was 82.8%. The viability, T/C [5] was 65.8%, the viability, T/C [6] was 9.71% and the viability, T/C [7] was 79.9%. For the same compound, the viability, T/C [8] was 93.8%, the viability, T/C [9] was 89.5% and the viability, T/C [10] was 84.9%. It also gave a viability, T/C [11] of 54.1%, a viability, T/C [12] of 7.68% and a viability, T/C [13] of 74.2%. For the same compound, the viability, T/C [14] was 90.7%, the viability, T/C [15] was 88% and the viability, T/C [16] was 70.8%. It also gave a viability, T/C [17] of 64.5%, a viability, T/C [18] of 10.5% and a viability, T/C [19] of 79.2%. The viability, T/C [20] was 77.1%, the viability, T/C [21] was 77.5% and the viability, T/C [22] was 70.6%. The viability, T/C [23] was 58.6%, the viability, T/C [24] was 11.8% and the viability, T/C [25] was 75.4%. For the same compound, the viability, T/C [26] was 77.3%, the viability, T/C [27] was 73.5% and the viability, T/C [28] was 59.9%. For the same compound, the viability, T/C [29] was 52.4% and the viability, T/C [30] was 7.8%.

For CC1COCCN1c1cc(C2(S(C)(=N)=O)CC2)nc(-c2ccnc3[nH]ccc23)n1 (stereo not given) + NC1CCC(NC2CC2c2ccccc2)CC1, the IC50 (second compound 0.1 µM) was > 10 µM, the IC50 (second compound 0.316 µM) was > 10 µM and the IC50 (second compound 1 µM) was > 10 µM. The IC50 (second compound 3.16 µM) was > 10 µM, the IC50 (second compound 10 µM) was 6.32 µM and the viability, T/C [1] was 96.9%. It also gave a viability, T/C [2] of 90.1%, a viability, T/C [3] of 81.8% and a viability, T/C [4] of 77.5%. For the same compound, the viability, T/C [5] was 71.2%, the viability, T/C [6] was 60.3% and the viability, T/C [7] was 87.8%. It also gave a viability, T/C [8] of 90.2%, a viability, T/C [9] of 78.7% and a viability, T/C [10] of 70%. For the same compound, the viability, T/C [11] was 55.6%, the viability, T/C [12] was 53.9% and the viability, T/C [13] was 80%. It also gave a viability, T/C [14] of 88.5%, a viability, T/C [15] of 73.4% and a viability, T/C [16] of 65.3%. It also gave a viability, T/C [17] of 58.1%, a viability, T/C [18] of 53.8% and a viability, T/C [19] of 93.5%. The viability, T/C [20] was 77.8%, the viability, T/C [21] was 79.4% and the viability, T/C [22] was 67.2%. For the same compound, the viability, T/C [23] was 55.8%, the viability, T/C [24] was 60.5% and the viability, T/C [25] was 67.5%. It also gave a viability, T/C [26] of 73.5%, a viability, T/C [27] of 69% and a viability, T/C [28] of 66.1%. The viability, T/C [29] was 48% and the viability, T/C [30] was 49.3%.

In the case of CCN(c1cc(-c2ccc(CN3CCOCC3)cc2)cc(C(=O)NCc2c(C)cc(C)[nH]c2=O)c1C)C1CCOCC1 + NC1CCC(NC2CC2c2ccccc2)CC1, the IC50 (second compound 0.1 µM) is reported as 1.69 µM, the IC50 (second compound 0.316 µM) is reported as > 3 µM and the IC50 (second compound 1 µM) is reported as 2.27 µM. The IC50 (second compound 3.16 µM) was > 3 µM, the IC50 (second compound 10 µM) was 1.62 µM and the viability, T/C [31] was 89.1%. It also gave a viability, T/C [32] of 97%, a viability, T/C [33] of 100% and a viability, T/C [34] of 81.3%. It also gave a viability, T/C (second compound 0.1 µM, first compound 0.949 µM) of 59.1%, a viability, T/C (second compound 0.1 µM, first compound 3 µM) of 41.7% and a viability, T/C [35] of 84.5%. It also gave a viability, T/C [36] of 91.7%, a viability, T/C [37] of 93.9% and a viability, T/C [38] of 85.6%. It also gave a viability, T/C (second compound 0.316 µM, first compound 0.949 µM) of 55%, a viability, T/C (second compound 0.316 µM, first compound 3 µM) of 50.6% and a viability, T/C [39] of 90.7%. For the same compound, the viability, T/C [40] was 93%, the viability, T/C [41] was 88.5% and the viability, T/C [42] was 77.3%. For the same compound, the viability, T/C (second compound 1 µM, first compound 0.949 µM) was 57.1%, the viability, T/C (second compound 1 µM, first compound 3 µM) was 47.7% and the viability, T/C [43] was 91.1%. For the same compound, the viability, T/C [44] was 100%, the viability, T/C [45] was 76.1% and the viability, T/C [46] was 69.8%. For the same compound, the viability, T/C (second compound 3.16 µM, first compound 0.949 µM) was 60.1%, the viability, T/C (second compound 3.16 µM, first compound 3 µM) was 49.5% and the viability, T/C [47] was 82.8%. It also gave a viability, T/C [48] of 88.3%, a viability, T/C [49] of 76.5% and a viability, T/C [50] of 70.6%. The viability, T/C (second compound 10 µM, first compound 0.949 µM) was 54% and the viability, T/C (second compound 10 µM, first compound 3 µM) was 44.9%.

In the case of Nc1ncn(C2CC(O)C(CO)S2)c(=O)n1 (stereo not given) + NC1CCC(NC2CC2c2ccccc2)CC1, the IC50 (second compound 0.1 µM) is reported as 0.0883 µM, the IC50 (second compound 0.316 µM) is reported as 0.0988 µM and the IC50 (second compound 1 µM) is reported as 0.0912 µM. It also gave an IC50 (second compound 3.16 µM) of 0.0852 µM, an IC50 (second compound 10 µM) of 0.0764 µM and a viability, T/C (second compound 0.1 µM, first compound 0.000949 µM) of 102%. For the same compound, the viability, T/C (second compound 0.1 µM, first compound 0.003 µM) was 93%, the viability, T/C [31] was 99.5% and the viability, T/C [32] was 69.4%. It also gave a viability, T/C [33] of 52.4%, a viability, T/C [34] of 41.5% and a viability, T/C (second compound 0.316 µM, first compound 0.000949 µM) of 91.5%. The viability, T/C (second compound 0.316 µM, first compound 0.003 µM) was 94.8%, the viability, T/C [35] was 83.7% and the viability, T/C [36] was 73%. For the same compound, the viability, T/C [37] was 49.9%, the viability, T/C [38] was 36.6% and the viability, T/C (second compound 1 µM, first compound 0.000949 µM) was 91.2%. The viability, T/C (second compound 1 µM, first compound 0.003 µM) was 93.3%, the viability, T/C [39] was 79.6% and the viability, T/C [40] was 67%. For the same compound, the viability, T/C [41] was 49.5%, the viability, T/C [42] was 39% and the viability, T/C (second compound 3.16 µM, first compound 0.000949 µM) was 96%. The viability, T/C (second compound 3.16 µM, first compound 0.003 µM) was 90%, the viability, T/C [43] was 94.6% and the viability, T/C [44] was 67.8%. For the same compound, the viability, T/C [45] was 51.1%, the viability, T/C [46] was 43.8% and the viability, T/C (second compound 10 µM, first compound 0.000949 µM) was 88.5%. The viability, T/C (second compound 10 µM, first compound 0.003 µM) was 83.2%, the viability, T/C [47] was 71.9% and the viability, T/C [48] was 61.1%. The viability, T/C [49] was 46% and the viability, T/C [50] was 42.1%.
